From patent US11401286B2 (Tetra Discovery Partners, LLC, priority 2012, dated 2022)
Counter-ions that a name gives are not always drawn.

Molecular target: PDE4D7 (Homo sapiens (Human), UniProt Q08499)
Settings: not given

Sequence of PDE4D7 (Q08499 other isoform, or with tags, fused parts or gaps): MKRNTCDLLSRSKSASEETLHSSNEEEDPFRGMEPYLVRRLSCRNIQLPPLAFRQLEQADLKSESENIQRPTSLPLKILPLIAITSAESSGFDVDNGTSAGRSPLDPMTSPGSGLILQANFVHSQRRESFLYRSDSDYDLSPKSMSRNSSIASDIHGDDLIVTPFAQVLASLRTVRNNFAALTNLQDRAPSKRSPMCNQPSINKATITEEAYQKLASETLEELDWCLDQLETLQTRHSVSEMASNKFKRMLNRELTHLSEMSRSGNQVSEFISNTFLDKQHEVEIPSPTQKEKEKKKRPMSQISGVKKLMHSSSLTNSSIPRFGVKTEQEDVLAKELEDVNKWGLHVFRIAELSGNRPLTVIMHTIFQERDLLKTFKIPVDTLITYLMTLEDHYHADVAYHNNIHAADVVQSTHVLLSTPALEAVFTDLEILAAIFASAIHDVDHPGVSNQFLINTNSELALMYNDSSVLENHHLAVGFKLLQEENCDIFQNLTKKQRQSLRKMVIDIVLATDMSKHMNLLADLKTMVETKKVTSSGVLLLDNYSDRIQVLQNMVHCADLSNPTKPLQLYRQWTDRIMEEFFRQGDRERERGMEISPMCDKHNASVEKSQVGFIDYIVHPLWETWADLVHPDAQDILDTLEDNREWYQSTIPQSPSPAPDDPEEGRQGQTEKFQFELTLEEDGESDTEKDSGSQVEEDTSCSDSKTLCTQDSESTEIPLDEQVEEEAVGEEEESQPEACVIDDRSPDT

Row | SMILES | IC50
1 | CN(c1ccc(CC(N)=O)cc1)c1cc(-c2cccc(Cl)c2)nc2c1CCC2 [Example 118, 2-(4-((2-(3-Chlorophenyl)-6,7-dihydro-5H-cyclopenta[b]pyridin-4-yl)(methyl)amino)phenyl)acetamide] | > 1000 nM

Same assay, conditions: read-out: PDE4D7 IC50; PDE4D7 without asterisk

Row | SMILES | IC50
2 | NC(=O)C(CO)Cc1ccc(Nc2cc(-c3cccc(Cl)c3)nc3c2CCC3)cc1 (stereo not shown) [Example 108, 2-(4-((2-(3-Chlorophenyl)-6,7-dihydro-5H-cyclopenta[b]pyridin-4-yl)amino)benzyl)-3-hydroxypropanamide hydrochloride] | < 1000 nM
3 | Cc1cc(Nc2cc(-c3cccc(Cl)c3)nc3c2CCC3)ccc1CC#N [Example 109, 2-(4-((2-(3-Chlorophenyl)-6,7-dihydro-5H-cyclopenta[b]pyridin-4-yl)amino)-2-methylphenyl)acetonitrile hydrochloride] | > 1000 nM
4 | FC(F)(F)Cc1ccc(Nc2cc(-c3cccc(Cl)c3)nc3c2CCC3)cc1 [Example 110, 2-(3-Chlorophenyl)-N-(4-(2,2,2-trifluoroethyl)phenyl)-6,7-dihydro-5H-cyclopenta[b]pyridin-4-amine hydrochloride] | > 1000 nM
5 | Cc1cc(Nc2cc(-c3cccc(Cl)c3)nc3c2CCC3)ccc1CC(N)=O [Example 111, 2-(4-((2-(3-Chlorophenyl)-6,7-dihydro-5H-cyclopenta[b]pyridin-4-yl)amino)-2-methylphenyl)acetamide hydrochloride] | > 1000 nM
6 | NC(=O)Cc1ccc(Nc2cc(-c3cccc(Cl)c3)nc3c2CCC3)cc1F [Example 112, 2-(4-((2-(3-Chlorophenyl)-6,7-dihydro-5H-cyclopenta[b]pyridin-4-yl)amino)-2-fluorophenyl)acetamide hydrochloride] | > 1000 nM
7 | OCCc1ccc(Nc2cc(-c3cccc(Cl)c3)nc3c2CCC3)cc1F [Example 113, 2-(4-((2-(3-Chlorophenyl)-6,7-dihydro-5H-cyclopenta[b]pyridin-4-yl)amino)-2-fluorophenyl)ethanol hydrochloride] | > 1000 nM
8 | Clc1cccc(-c2cc(Nc3ccc(Cc4ncco4)cc3)c3c(n2)CCC3)c1 [Example 114, 2-(3-Chlorophenyl)-N-(4-(oxazol-2-ylmethyl)phenyl)-6,7-dihydro-5H-cyclopenta[b]pyridin-4-amine hydrochloride] | > 1000 nM
9 | OCC(O)c1ccc(Nc2cc(-c3cccc(Cl)c3)nc3c2CCC3)cc1 (stereo not shown) [Example 115, 1-(4-((2-(3-Chlorophenyl)-6,7-dihydro-5H-cyclopenta[b]pyridin-4-yl)amino)phenyl)ethane-1,2-diol hydrochloride] | > 1000 nM
10 | CC(Oc1ccc(Nc2cc(-c3cccc(Cl)c3)nc3c2CCC3)cc1)C(N)=O (stereo not shown) [Example 116, 2-(4-((2-(3-Chlorophenyl)-6,7-dihydro-5H-cyclopenta[b]pyridin-4-yl)amino)phenoxy)propanamide hydrochloride] | > 1000 nM
11 | CC(CO)Oc1ccc(Nc2cc(-c3cccc(Cl)c3)nc3c2CCC3)cc1 (stereo not shown) [Example 117, 2-(4-((2-(3-Chlorophenyl)-6,7-dihydro-5H-cyclopenta[b]pyridin-4-yl)amino)phenoxy)propan-1-ol hydrochloride] | > 1000 nM
12 | NC(=O)CCc1ccc(Nc2cc(-c3cccc(Cl)c3)nc3c2CCC3)cc1 [Example 119, 3-(4-((2-(3-chlorophenyl)-6,7-dihydro-5H-cyclopenta[b]pyridin-4-yl)amino)phenyl)propanamide hydrochloride] | > 1000 nM
13 | CNC(=O)Cc1ccc(Nc2cc(-c3cccc(Cl)c3)nc3c2CCC3)cc1 [Example 120, 2-(4-((2-(3-chlorophenyl)-6,7-dihydro-5H-cyclopenta[b]pyridin-4-yl)amino)phenyl)-N-methylacetamide hydrochloride] | > 1000 nM
14 | CN(C)C(=O)Cc1ccc(Nc2cc(-c3cccc(Cl)c3)nc3c2CCC3)cc1 [Example 121, 2-(4-((2-(3-chlorophenyl)-6,7-dihydro-5H-cyclopenta[b]pyridin-4-yl)amino)phenyl)-N,N-dimethylacetamide hydrochloride] | < 1000 nM
15 | NC(=O)C(Cc1ccc(Nc2cc(-c3cccc(Cl)c3)nc3c2CCC3)cc1)C(N)=O [Example 122, 2-(4-((2-(3-Chlorophenyl)-6,7-dihydro-5H-cyclopenta[b]pyridin-4-yl)amino)benzyl)malonamide hydrochloride] | > 1000 nM
16 | CC(Cc1ccc(Nc2cc(-c3cccc(Cl)c3)nc3c2CCC3)cc1)(C(N)=O)C(N)=O [Example 124, 2-(4-((2-(3-Chlorophenyl)-6,7-dihydro-5H-cyclopenta[b]pyridin-4-yl)amino)benzyl)-2-methylmalonamide hydrochloride] | > 1000 nM
17 | NC(=O)Cc1ccc(Cc2cc(-c3cccc(Cl)c3)nc3c2CCC3)cc1 [Example 125, 2-(4-((2-(3-Chlorophenyl)-6,7-dihydro-5H-cyclopenta[b]pyridin-4-yl)methyl)phenyl)acetamide hydrochloride] | > 1000 nM
18 | CC(C)(C(=O)O)c1ccc(Cc2cc(-c3cccc(Cl)c3)nc3c2CCC3)cc1 [Example 126, 2-(4-((2-(3-Chlorophenyl)-6,7-dihydro-5H-cyclopenta[b]pyridin-4-yl)methyl)phenyl)-2-methylpropanoic acid hydrochloride] | > 1000 nM
19 | CC(C)(C(N)=O)c1ccc(Cc2cc(-c3cccc(Cl)c3)nc3c2CCC3)cc1 [Example 127, 2-(4-((2-(3-Chlorophenyl)-6,7-dihydro-5H-cyclopenta[b]pyridin-4-yl)methyl)phenyl)-2-methylpropanamide hydrochloride] | > 1000 nM

Row | SMILES | IC50
20 | CC(C)(CO)c1ccc(Cc2cc(-c3cccc(Cl)c3)nc3c2CCC3)cc1 [Example 128, 2-(4-((2-(3-Chlorophenyl)-6,7-dihydro-5H-cyclopenta[b]pyridin-4-yl)methyl)phenyl)-2-methylpropan-1-ol hydrochloride] | > 1000 nM
21 | CN(C(N)=O)c1ccc(Nc2cc(-c3cccc(Cl)c3)nc3c2CCC3)cc1 [Example 129, 1-(4-((2-(3-Chlorophenyl)-6,7-dihydro-5H-cyclopenta[b]pyridin-4-yl)amino)phenyl)-1-methylurea hydrochloride] | > 1000 nM
22 | NC(=O)CCCc1ccc(Nc2cc(-c3cccc(Cl)c3)nc3c2CCC3)cc1 [Example 130, 4-(4-((2-(3-Chlorophenyl)-6,7-dihydro-5H-cyclopenta[b]pyridin-4-yl)amino)phenyl)butanamide hydrochloride] | > 1000 nM
23 | NC(=O)Cc1ccc(Cc2cc(OC3CCCC3)nc3c2CCC3)cc1 [Example 131, 2-(4-((2-(Cyclopentyloxy)-6,7-dihydro-5H-cyclopenta[b]pyridin-4-yl)methyl)phenyl)acetamide hydrochloride] | > 1000 nM
24 | OCCc1ccc(Nc2cc(-c3ccc[nH]3)nc3c2CCC3)cc1 [Example 132, 2-(4-((2-(1H-Pyrrol-2-yl)-6,7-dihydro-5H-cyclopenta[b]pyridin-4-yl)amino)phenyl)ethanol hydrochloride] | > 1000 nM
25 | NC(=O)Cc1ccc(Nc2cc(-c3ccc[nH]3)nc3c2CCC3)cc1 [Example 133, 2-(4-((2-(1H-Pyrrol-2-yl)-6,7-dihydro-5H-cyclopenta[b]pyridin-4-yl)amino)phenyl)acetamide hydrochloride] | > 1000 nM
26 | NC(=O)Cc1ccc(Nc2cc(-c3cncc(Cl)c3)nc3c2CCC3)cc1 [Example 134, 2-(4-((2-(5-Chloropyridin-3-yl)-6,7-dihydro-5H-cyclopenta[b]pyridin-4-yl)amino)phenyl)acetamide hydrochloride] | > 1000 nM
27 | NC(=O)Cc1ccc(Nc2cc(-c3cccc(Cl)c3)nc(C3CC3)c2)cc1 [Example 139, 2-(4-((2-(3-Chlorophenyl)-6-cyclopropylpyridin-4-yl)amino)phenyl)acetamide hydrochloride] | < 1000 nM
28 | OCCc1ccc(Nc2cc(-c3cccc(Cl)c3)nc(C3CC3)c2)cc1 [Example 140, 2-(4-((2-(3-Chlorophenyl)-6-cyclopropylpyridin-4-yl)amino)phenyl)ethanol hydrochloride] | > 1000 nM
29 | COC(=O)Cc1ccc(Cc2cc(-c3cccc(Cl)c3)nc(C(F)(F)F)c2)cc1 [Example 141, Methyl 2-(4-((2-(3-chlorophenyl)-6-(trifluoromethyl)pyridin-4-yl)methyl)phenyl)acetate] | > 1000 nM
30 | OCCc1ccc(Cc2cc(-c3cccc(Cl)c3)nc(C(F)(F)F)c2)cc1 [Example 143, 2-(4-((2-(3-Chlorophenyl)-6-(trifluoromethyl)pyridin-4-yl)methyl)phenyl)ethanol] | > 1000 nM
31 | NC(=O)Cc1ccc(Cc2cc(-c3cccc(Cl)c3)nc(C(F)(F)F)c2)cc1 [Example 144, 2-(4-((2-(3-Chlorophenyl)-6-(trifluoromethyl)pyridin-4-yl)methyl)phenyl)acetamide] | > 1000 nM
32 | NC(=O)Cc1ccc(Nc2cc(-c3cccc(Cl)c3)nc(C(F)(F)F)c2)cc1 [Example 145, 2-(4-((2-(3-Chlorophenyl)-6-(trifluoromethyl)pyridin-4-yl)amino)phenyl)acetamide] | < 1000 nM
33 | OCCc1ccc(Nc2cc(-c3cccc(Cl)c3)nc(C(F)(F)F)c2)cc1 [Example 146, 2-(4-((2-(3-Chlorophenyl)-6-(trifluoromethyl)pyridin-4-yl)amino)phenyl)ethanol] | < 1000 nM
34 | OCCCc1ccc(Nc2cc(-c3cccc(Cl)c3)nc(C(F)(F)F)c2)cc1 [Example 147, 3-(4-((2-(3-Chlorophenyl)-6-(trifluoromethyl)pyridin-4-yl)amino)phenyl)propan-1-ol] | < 1000 nM
35 | NC(=O)Cc1ccc(Nc2cc(-c3ccc(Cl)cc3)nc3c2CCC3)cc1 [Example 148, 2-(4-((2-(4-Chlorophenyl)-6,7-dihydro-5H-cyclopenta[b]pyridin-4-yl)amino)phenyl)acetamide hydrochloride] | > 1000 nM
36 | OCCc1ccc(Nc2cc(-c3ccc(Cl)cc3)nc3c2CCC3)cc1 [Example 149, 2-(4-((2-(4-Chlorophenyl)-6,7-dihydro-5H-cyclopenta[b]pyridin-4-yl)amino)phenyl)ethanol hydrochloride] | > 1000 nM
37 | NC(=O)Cc1ccc(Nc2cc(-c3ccc(F)c(Cl)c3)nc3c2CCC3)cc1 [Example 150, 2-(4-((2-(3-Chloro-4-fluorophenyl)-6,7-dihydro-5H-cyclopenta[b]pyridin-4-yl)amino)phenyl)acetamide hydrochloride] | > 1000 nM
